Legend:
[1] = biological target: T1, Human SSAO (Homo sapiens, UniProt Q16853); assay: SSAO activity, hydrogen peroxide production relative to benzylamine (human); format: biochemical; settings: compound at 1 mM
T1 sequence (Q16853 1-763): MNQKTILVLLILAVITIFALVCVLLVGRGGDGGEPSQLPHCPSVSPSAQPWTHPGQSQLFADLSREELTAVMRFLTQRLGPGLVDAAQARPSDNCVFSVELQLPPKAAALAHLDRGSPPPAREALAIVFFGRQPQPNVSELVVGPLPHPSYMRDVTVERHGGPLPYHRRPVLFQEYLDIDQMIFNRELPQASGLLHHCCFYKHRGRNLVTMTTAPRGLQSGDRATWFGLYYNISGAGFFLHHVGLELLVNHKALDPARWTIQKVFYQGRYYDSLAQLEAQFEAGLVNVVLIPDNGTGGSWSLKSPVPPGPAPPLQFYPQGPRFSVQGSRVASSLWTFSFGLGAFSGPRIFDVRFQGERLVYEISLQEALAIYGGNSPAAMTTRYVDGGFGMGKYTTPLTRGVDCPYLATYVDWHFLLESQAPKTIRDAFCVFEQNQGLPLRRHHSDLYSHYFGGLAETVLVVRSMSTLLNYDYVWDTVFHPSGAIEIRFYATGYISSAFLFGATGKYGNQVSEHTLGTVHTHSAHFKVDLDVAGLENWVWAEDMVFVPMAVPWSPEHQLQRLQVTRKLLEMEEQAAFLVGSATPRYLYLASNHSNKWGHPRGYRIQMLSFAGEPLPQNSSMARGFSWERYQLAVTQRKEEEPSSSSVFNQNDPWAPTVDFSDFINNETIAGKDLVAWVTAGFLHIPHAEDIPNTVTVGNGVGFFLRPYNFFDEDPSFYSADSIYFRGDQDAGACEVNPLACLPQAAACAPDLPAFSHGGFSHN
Description: (§1) The continuous spectrophotometric detection of SSAO-dependent H2O2 production based on a peroxidase-coupled reaction was performed as previously described by Abella et al. (2004, Diabetologia 47: 429-438) and following the procedure described by Holt et al., (1997, Anal. Biochem. 244: 384-392).
(§2) Compounds listed in Table 1 were prepared according to the methods described above, purity was determined by HPLC at 220 nm, molecular weight calculated by mass spectrometer. Human and mouse SSAO activity was determined by detecting the production of hydrogene peroxide in the presence of the different compounds present at 1 mM for human and 100 μM for mice activity measurements. Compounds in Table 2″ were similarly assayed. Values are means of percentages relative to benzylamine-related hydrogen production. Kinetic Parameters for select compounds are set forth in Table 3 (Mouse SSAO) and Table 4 (Human SSAO).

[2] = biological target: T2, mouse SSAO (Mus musculus, UniProt O70423); assay: SSAO activity, hydrogen peroxide production relative to benzylamine (mouse); format: biochemical; settings: compound at 100 μM
T2 sequence (O70423 1-765): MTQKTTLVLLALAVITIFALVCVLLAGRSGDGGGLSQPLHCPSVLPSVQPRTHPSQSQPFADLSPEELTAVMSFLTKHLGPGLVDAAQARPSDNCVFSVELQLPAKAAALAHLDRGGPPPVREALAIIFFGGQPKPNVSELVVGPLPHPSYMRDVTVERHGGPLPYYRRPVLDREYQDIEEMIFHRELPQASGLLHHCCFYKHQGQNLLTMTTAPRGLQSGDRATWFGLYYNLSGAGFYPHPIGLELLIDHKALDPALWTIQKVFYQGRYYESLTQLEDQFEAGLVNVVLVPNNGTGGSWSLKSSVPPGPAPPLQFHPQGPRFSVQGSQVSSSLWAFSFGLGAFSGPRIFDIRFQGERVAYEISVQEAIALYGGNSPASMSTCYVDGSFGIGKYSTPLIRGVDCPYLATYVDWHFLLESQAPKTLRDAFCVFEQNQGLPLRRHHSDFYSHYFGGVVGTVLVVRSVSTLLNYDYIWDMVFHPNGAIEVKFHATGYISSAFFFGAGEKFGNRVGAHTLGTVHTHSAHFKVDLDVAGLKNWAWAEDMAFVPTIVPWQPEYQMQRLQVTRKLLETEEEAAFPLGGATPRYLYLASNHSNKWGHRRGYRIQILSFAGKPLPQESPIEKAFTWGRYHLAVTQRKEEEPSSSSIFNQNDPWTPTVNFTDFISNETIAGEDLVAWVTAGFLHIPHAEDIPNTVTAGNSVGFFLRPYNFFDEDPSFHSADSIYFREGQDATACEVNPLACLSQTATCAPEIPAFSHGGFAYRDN
Description: as §1, §2

[3] = tested on: isolated rat adipocytes; assay: Glucose transport (2-deoxyglucose uptake) in isolated rat adipocytes; format: cell-based; settings: isolated rat adipocytes; for stimulation of glucose transport in the presence of semicarbazide: 1 mM semicarbazide; for stimulation of glucose transport (2-DG uptake): 45 min incubation
Description: In order to determine whether salts formed by vanadate and benzylamine could produce an insulin mimetic effect, the effect of increasing concentrations of hexaquis(benzylammonium) decavanadate on glucose transport activity in isolated rat adipocytes was tested. […] In similar assays, the activity of hexaquis(benzylammonium) decavanadate, pentaquis(benzylammonium) decavanadate and tetraquis(benzylammonium) decavanadate on glucose transport activity in isolated rat adipocytes were analyzed.
To determine the possible insulin mimetic effect of certain vanadium arylalkylamines, the capacity of these compounds to enhance glucose transport in isolated rat adipocytes was tested. Adipose cells from Wistar rats were incubated for 45 minutes in basal conditions (Basal) or in the presence of 100 nM insulin (Ins), and different concentrations of. hexaquis(benzylammonium) decavanadate (B6V10) in the absence or in the presence of 1 mM semicarbazide (SCZ). Subsequently, 2-DG transport was measured over a 5 min. interval.
The effects of the three tested compounds (B6V10, B5V10 and B4V10) were compared. Adipose cells from Wistar rats were incubated for 45 minutes in basal conditions (Basal) or in the presence of 100 nM insulin (Ins), and different concentrations of. decavanadate (V10), hexaquis(benzylammonium) decavanadate (B6V10), pentaquis(benzylammonium) decavanadate (B5V10) or tetraquis(benzylammonium) decavanadate (B4V10) in the absence or in the presence of 1 mM semicarbazide (SCZ). 2-DG transport was measured over 5 min. intervals. […]
The effects of incubation with semicarbazide or phosphatidylinositol 3-kinase inhibitors were also investigated. Adipose cells were incubated with B6V10 (25 μM, 45 min) in the absence or presence of wortmannin (2 μM, 45 min), LY294002 (10 μM, 45 min) or semicarbazide (1 mM, 45 min) and thereafter 2-deoxyglucose uptake was determined during 5 min.

Compound	SSAO activity (% relative to benzylamine) Human [1] [%]	SSAO activity (% relative to benzylamine) Mouse [2] [%]	stimulation of glucose transport in the presence of semicarbazide ([3]; dihydrate)	stimulation of glucose transport in the presence of semicarbazide ([3]; listed as tetraquis(benzylammonium) decavanadate, Dihydrate)	stimulation of glucose transport (2-DG uptake) [3]	stimulation of glucose transport in the presence of semicarbazide ([3]; listed as pentaquis(benzylammonium) decavanadate, dihydrate)
NCc1cccc(CN)c1 [Entry 26, 1,3-phenylene dimethanamine]	0.00	0.00				
NCc1ccc(C(=O)O)cc1 [Entry 27, 4-(aminomethyl)benzoic acid]	0.00	4.06				
COc1ccc(CN)c2ccccc12 [Entry 28, (4-methoxynaphthalen-1-yl)methanamine]	0.70	0.00				
NCc1c(O)ccc2ccccc12 [Entry 29, 1-(aminomethyl)naphthalen-2-ol]	0.00	0.00				
CC(N)c1cccc2ccccc12 (centres unmarked) [Entry 30, 1-(naphthalen-1-yl)ethanamine]	11.00	0.00				
NCCc1ccccc1 [Entry 41, 2-phenylethanamine]	8.20	6.80				
NCCCc1ccccc1 [Entry 42, 3-phenylpropan-1-amine]	60.30	44.80				
NCCOc1ccccc1 [Entry 43, 2-phenoxyethanamine]	17.93	14.60				
NCCCCc1ccccc1 [Entry 44, 4-phenylbutan-1-amine]	147.63	61.18				
COc1cccc2[nH]cc(CN)c12 [Entry 45, (4-methoxy-1H-indol-3-yl)methanamine]	0.00	5.54				
NCCc1ccc(F)cc1 [Entry 46, 2-(4-fluorophenyl)ethanamine]	16.30	59.80				
NCCc1ccc(O)c(O)c1 [Entry 47, 4-(2-aminoethyl)benzene-1,2-diol]	0.00	0.00				
COc1ccc(CCN)cc1OC [Entry 48, 2-(3,4-dimethoxyphenyl)ethanamine]	0.00	3.80				
Tetraquis(Benzylammonium) Decavanadate (V) Dihydrate [Entry B4V10]			blocked in the presence of semicarbazide	this effect was inhibited	pronounced stimulation on glucose transport	
pentaquis(benzylammonium) decavanadate (V) dihydrate [Entry B5V10]			blocked in the presence of semicarbazide		pronounced stimulation on glucose transport	this effect was inhibited

— patent publication US20070066682A1, “Arylalkylamine vanadium (V) salts for the treatment and/or prevention of Diabetes mellitus” (priority 2005, published 2007)
